Results taken from patent publication US11053256B2, “Dihydropyranopyrimidines for the treatment of viral infections” (Janssen Sciences Ireland Unlimited Company, priority 2016, dated 2021).

Legend:
human TLR8 = target: T1, human TLR8 (Homo sapiens, UniProt Q9NR97); experiment: Human TLR8 cellular reporter assay (HEK293, NFkB-luc); type: cell-based; details: HEK293 cells transiently transfected with TLR8 and NFkB-luc; 6 hours incubation; lowest effective concentration
T1 construct: expressed in transfected cells; host or cells: HEK293
T1 sequence (Q9NR97 27-1041): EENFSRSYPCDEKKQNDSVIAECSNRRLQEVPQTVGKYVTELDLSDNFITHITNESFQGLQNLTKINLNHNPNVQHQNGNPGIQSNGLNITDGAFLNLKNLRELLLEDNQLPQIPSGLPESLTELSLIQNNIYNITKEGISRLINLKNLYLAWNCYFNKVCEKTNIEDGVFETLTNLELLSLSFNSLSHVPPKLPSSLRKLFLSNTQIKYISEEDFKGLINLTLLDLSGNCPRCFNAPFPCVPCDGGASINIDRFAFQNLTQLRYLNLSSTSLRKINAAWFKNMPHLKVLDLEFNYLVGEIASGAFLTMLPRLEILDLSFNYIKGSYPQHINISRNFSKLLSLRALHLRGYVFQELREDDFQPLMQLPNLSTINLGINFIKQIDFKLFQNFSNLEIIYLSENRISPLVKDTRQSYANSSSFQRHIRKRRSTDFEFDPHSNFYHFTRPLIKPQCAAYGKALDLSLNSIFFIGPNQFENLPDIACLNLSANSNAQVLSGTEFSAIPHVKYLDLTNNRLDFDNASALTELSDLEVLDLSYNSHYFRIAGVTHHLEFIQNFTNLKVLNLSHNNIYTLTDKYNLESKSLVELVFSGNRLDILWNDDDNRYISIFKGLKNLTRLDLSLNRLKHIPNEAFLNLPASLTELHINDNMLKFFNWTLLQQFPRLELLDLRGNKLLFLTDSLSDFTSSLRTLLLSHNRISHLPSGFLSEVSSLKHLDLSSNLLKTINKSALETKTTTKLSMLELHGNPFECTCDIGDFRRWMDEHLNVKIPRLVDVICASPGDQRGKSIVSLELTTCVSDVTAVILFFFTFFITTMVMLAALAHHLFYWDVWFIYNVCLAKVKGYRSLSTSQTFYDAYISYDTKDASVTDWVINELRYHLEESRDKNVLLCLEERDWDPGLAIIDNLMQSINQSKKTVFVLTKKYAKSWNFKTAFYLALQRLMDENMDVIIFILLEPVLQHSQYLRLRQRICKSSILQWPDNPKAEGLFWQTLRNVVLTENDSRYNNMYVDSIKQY
Procedure: (§1) Assessment of human TLR7 and human TLR8 activity. The ability of compounds to activate human TLR7 and/or TLR8 was assessed in a cellular reporter assay using HEK293 cells transiently transfected with a TLR7 or TLR8 expression vector and NFkB-luc reporter construct.
(§2) Briefly, HEK293 cells were grown in culture medium (DMEM supplemented with 10% FCS and 2 mM glutamine). For transfection of cells in 15 cm dishes, cells were detached with Trypsin-EDTA, transfected with a mix of CMV-TLR7 or TLR8 plasmid (1700 ng), NFkB-luc plasmid (850 ng) and a transfection reagent and incubated for 48 h at 37° C. in a humidified 5% CO2 atmosphere. Transfected cells were then washed in PBS, detached with Trypsin-EDTA and resuspended in medium to a density of 1.25×10^5 cells/mL. Forty microliters of cells were then dispensed into each well in 384-well plates, where 200 nL of compound in 100% DMSO was already present. Following 6 hours incubation at 37° C., 5% CO2, the luciferase activity was determined by adding 15 μL of Steady Lite Plus substrate (Perkin Elmer) to each well and readout performed on a ViewLux ultraHTS microplate imager (Perkin Elmer). Dose response curves were generated from measurements performed in quadruplicates. Lowest effective concentrations (LEC) values, defined as the concentration that induces an effect which is at least two fold above the standard deviation of the assay, were determined for each compound.

human TLR7 = target: T2, human TLR7 (Homo sapiens, UniProt Q9NYK1); experiment: Human TLR7 cellular reporter assay (HEK293, NFkB-luc); type: cell-based; details: HEK293 cells transiently transfected with TLR7 and NFkB-luc; 6 hours incubation; lowest effective concentration
T2 construct: expressed in transfected cells; host or cells: HEK293
T2 sequence (Q9NYK1 27-1049): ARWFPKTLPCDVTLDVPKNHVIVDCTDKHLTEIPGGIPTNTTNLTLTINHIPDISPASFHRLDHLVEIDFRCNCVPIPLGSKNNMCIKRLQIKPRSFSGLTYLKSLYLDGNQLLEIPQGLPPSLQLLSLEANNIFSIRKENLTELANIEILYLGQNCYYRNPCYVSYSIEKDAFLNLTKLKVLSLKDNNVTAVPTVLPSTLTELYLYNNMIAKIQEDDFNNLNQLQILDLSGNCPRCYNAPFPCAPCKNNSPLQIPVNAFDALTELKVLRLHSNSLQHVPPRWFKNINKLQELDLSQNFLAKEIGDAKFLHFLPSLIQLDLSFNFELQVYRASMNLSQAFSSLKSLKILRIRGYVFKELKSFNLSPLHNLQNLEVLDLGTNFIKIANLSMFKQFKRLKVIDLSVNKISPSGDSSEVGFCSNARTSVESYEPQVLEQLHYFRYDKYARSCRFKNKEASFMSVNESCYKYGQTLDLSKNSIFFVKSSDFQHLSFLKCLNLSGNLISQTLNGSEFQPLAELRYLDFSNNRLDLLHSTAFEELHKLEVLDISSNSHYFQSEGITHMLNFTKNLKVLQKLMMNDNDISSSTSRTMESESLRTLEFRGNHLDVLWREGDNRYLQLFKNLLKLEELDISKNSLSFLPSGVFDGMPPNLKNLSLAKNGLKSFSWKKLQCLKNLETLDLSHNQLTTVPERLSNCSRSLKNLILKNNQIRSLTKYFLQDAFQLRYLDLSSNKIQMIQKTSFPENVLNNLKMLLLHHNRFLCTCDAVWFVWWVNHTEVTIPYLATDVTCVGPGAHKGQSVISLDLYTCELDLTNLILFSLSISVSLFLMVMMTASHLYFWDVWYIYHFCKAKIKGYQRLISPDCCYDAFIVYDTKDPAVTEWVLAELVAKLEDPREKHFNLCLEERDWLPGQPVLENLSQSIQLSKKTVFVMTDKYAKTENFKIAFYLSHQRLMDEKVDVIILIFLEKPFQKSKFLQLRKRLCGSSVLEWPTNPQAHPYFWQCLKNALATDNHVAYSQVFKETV
Procedure: as §1, §2

| Human TLR 8 (LEC) (human TLR8) [µM] | Human TLR 7 (LEC) (human TLR7) [µM] | SMILES |
| --- | --- | --- |
| 1.0 | 14.8 | CCCCNc1nc(N)nc2c1COCC2 [Compound 3, N^4-butyl-7,8-dihydro-5H-pyrano[4,3-d]pyrimidine-2,4-diamine] |
| 1.3 | >100 | CCCC[C@H](CO)Nc1nc(N)nc2c1COCC2 [Compound 4, (2R)-2-[(2-amino-7,8-dihydro-5H-pyrano[4,3-d]pyrimidin-4-yl)amino]hexan-1-ol] |
| 0.5 | 4.7 | CCCCNc1nc(N)nc2c1CCOC2 [Compound 7, N^4-butyl-5,8-dihydro-6H-pyrano[3,4-d]pyrimidine-2,4-diamine] |
| 1.4 | >100 | CCCC[C@H](CO)Nc1nc(N)nc2c1CCOC2 [Compound 8, (2R)-2-[(2-amino-5,8-dihydro-6H-pyrano[3,4-d]pyrimidin-4-yl)amino]hexan-1-ol] |
| 0.1 | 0.8 | CCCCNc1nc(N)nc2c1OCCC2 [Compound 13, N^4-butyl-7,8-dihydro-6H-pyrano[3,2-d]pyrimidine-2,4-diamine] |
| 0.1 | 32.5 | CCCC[C@H](CO)Nc1nc(N)nc2c1OCCC2 [Compound 14, (2R)-2-[(2-amino-7,8-dihydro-6H-pyrano[3,2-d]pyrimidin-4-yl)amino]hexan-1-ol] |
